Columns and labels:
Type in all cases: cell-based, human
[1] = test system: day 6 hPSC-derived hemogenic endothelium; test: Differentiation of day 6 hemogenic endothelium into day 9 HSC-like cells (qPCR, flow cytometry); conditions: for expression of GATA1 and CD45RA: SR1 and UM171 applied together, days 6-9; for formation of hPSC-derived HSC-like cells: presence vs absence of both UM171 and SR1, 3 days, flow cytometry for CD45+ CD45RA- on day 9
Experimental: FIG. 13: Optimizing the generation of, and characterizing, hPSC-derived HSC-like cells. […] B) qPCR was performed during hPSC differentiation into HSC-like cells every 24 hours; gene expression was normalized such that undifferentiated hPSCs=1.0. […] D) Flow cytometry strategy to purify i) CD144^+ CD45^+ CD45RA^− hPSC-derived day-9 HSC-like cells and ii) CD34^+ CD90^+ cord blood HSPCs vs. CD34^+ CD90^− cord blood non-HSCs (expanded for 3 days ex vivo prior to FACS sorting) for transcriptional analysis.
Day 6-9 (HSC-like cell induction, 72 hours [Step 5b]). Day 6 hemogenic endothelium cells were briefly washed (DMEM/F12, Thermo Fisher) and then differentiated towards HSC-like cells in CDM3 media supplemented with Forskolin (10 μM), IL1β (5 ng/mL, R&D Systems), LIF (20 ng/mL), OSM (10 ng/mL), SB505124 (2 μM), SR1 (750 nM, Cellagen Technology) and UM171 (75 nM, ApexBio) for 72 hours. HSC-like cell induction media was refreshed every 24 hours.
Flow cytometry. Undifferentiated and differentiated hPSCs were dissociated by incubation in TrypLE Express (Gibco) for 5 minutes at 37° C. Subsequently, dissociated cells in TrypLE Express were diluted 1:10 in DMEM/F12 and centrifuged (pelleted) at 500 g for 5 minutes. Each cell pellet was resuspended in FACS buffer (PBS+1 mM EDTA [Invitrogen]+2% v/v FBS [Atlanta Bio]+1% Penicillin/Streptomycin [Gibco]) supplemented with fluorescently-conjugated primary antibodies, and antibody staining occurred for 30 minutes on ice protected from light. After staining, cells were washed twice with FACS buffer and resuspended in 200 μL FACS buffer with DAPI (1:10,000, Biolegend) for live/dead discrimination. Samples were run on a Beckman Coulter CytoFlex analyzer (Stanford Stem Cell Institute FACS Core). For data analysis, cells were gated based on forward and side scatter with height and width used for doublet discrimination. Subsequently, live cells that were negative for DAPI were gated for all marker analyses and calculations of population frequency.
Quantitative PCR. Undifferentiated or differentiated hPSCs were lysed in 350 μL of RLT Plus Buffer and RNA was extracted using the RNeasy Plus Mini Kit (Qiagen) according to the manufacturer's protocol. 300 ng of total RNA was reverse transcribed into cDNA for qPCR using the High-Capacity cDNA Reverse Transcription Kit (Applied Biosystems) according to the manufacturer's protocol. qPCR was performed in 384-well format as previously described (Loh et al., 2016), using gene-specific forward and reverse primers on a QuantStudio 5 qPCR machine (Thermo Fisher). Expression of all genes was normalized to the levels of the reference gene YWHAZ.

[2] = test system: hPSC-derived day-3 trunk artery cells; test: Differentiation of hPSC-derived day-3 trunk artery cells into hemogenic endothelium / HSC-like cells (qPCR, flow cytometry); conditions: 24 hours, OSM and LIF withheld together
Experimental: (§1) FIG. 4: Efficient generation of trunk artery and hemogenic endothelium from hPSCs within 3 and 6 days, respectively. A) Cartoon of the strategy to generate trunk artery, hemogenic endothelium and HSC-like cells. B) Retinoic acid (RA) signaling induces HOXA1-5 genes in hPSC-derived trunk artery cells; day 1 hPSC-derived primitive streak cells were differentiated into trunk artery cells over the course of 48 hours, in the presence or absence of an RA agonist (TTNPB). C) Flow cytometry (left) and qPCR (right) of hPSC-derived trunk artery cells; for the qPCR data, gene expression is normalized for each gene to undifferentiated hPSCs (gene expression levels in hPSCs=1.0); as a negative control, hPSC-derived artery cells (white bar, generated in the absence of RA agonist) is shown. D) hPSC-derived day-3 trunk artery cells were differentiated into hemogenic endothelium for 24 hours in the complete hemogenic endothelium medium (Forskolin, SB505124, OSM and LIF), or in media where either Forskolin was withheld; SB505124 was withheld; or both OSM and LIF were withheld.
FIG. 12: Optimizing the generation of trunk artery, hemogenic endothelium and HSC-like cells from hPSCs. A) Retinoic acid (RA) signaling induces HOXA1-5 genes in hPSC-derived trunk artery cells; day 1 hPSC-derived primitive streak cells were differentiated into trunk artery cells over the course of 48 hours, in the presence or absence of RA agonists (ATRA, AM580 or TTNPB) on day 2 alone (for 24 hours), day 3 alone (for 24 hours) or day 2-3 interval (for 48 hours) B) hPSC-derived trunk artery cells can be generated in defined conditions on a defined extracellular matrix (ECM); hPSCs were plated on Geltrex (an undefined ECM matrix); bulk laminin; or recombinant vitronectin or laminin-511. C) hPSCs were differentiated into day-3 artery cells (without RA agonist) or day-3 trunk artery cells (with RA agonist); and then were further differentiated over the course of 6 further days into day-9 HSC-like cells. […]
(§2) Quantitative PCR. […]

[3] = test system: day 1 hPSC-derived primitive streak cells; test: Differentiation of day 1 primitive streak into trunk artery cells with RA agonists (qPCR, flow cytometry); conditions: for HOXA1-HOXA5 expression by day 3: RA agonist for 48 hours (days 2-3), qPCR; for formation of CD144+ CD43+ blood progenitors by day 9: RA agonist on days 2-3, then 6 further days of differentiation
Experimental: as §1
FIG. 12: Optimizing the generation of trunk artery, hemogenic endothelium and HSC-like cells from hPSCs. A) Retinoic acid (RA) signaling induces HOXA1-5 genes in hPSC-derived trunk artery cells; day 1 hPSC-derived primitive streak cells were differentiated into trunk artery cells over the course of 48 hours, in the presence or absence of RA agonists (ATRA, AM580 or TTNPB) on day 2 alone (for 24 hours), day 3 alone (for 24 hours) or day 2-3 interval (for 48 hours) B) hPSC-derived trunk artery cells can be generated in defined conditions on a defined extracellular matrix (ECM); hPSCs were plated on Geltrex (an undefined ECM matrix); bulk laminin; or recombinant vitronectin or laminin-511. C) hPSCs were differentiated into day-3 artery cells (without RA agonist) or day-3 trunk artery cells (with RA agonist); and then were further differentiated over the course of 6 further days into day-9 HSC-like cells. […] G) qPCR of hPSC differentiation into trunk arteries (day 3) and their conversion into hemogenic endothelium (day 6); qPCR data are normalized such that for each gene, expression levels in undifferentiated hPSCs=1.0.
Day 2 (trunk dorsal lateral mesoderm induction, 24 hours [Step 2b]). Day 1 mid primitive streak cells were briefly washed (DMEM/F12, Thermo Fisher) and then differentiated towards dorsal lateral mesoderm in CDM2 media supplemented with BMP4 (40 ng/mL), GDC-0941 (2.5 μM, Cellagen Technology), Forskolin (10 μM, Tocris), SB-505124 (2 μM, Tocris), VEGF (100 ng/mL, R&D Systems), XAV939 (1 μM, Tocris), AA2P (200 μg/mL) and TTNPB (0.5 nM) for 24 hours (i.e., the same media as dorsal lateral mesoderm induction, with the addition of TTNPB). […]
as §2

[4] = test system: day 1 hPSC-derived primitive streak; test: Dorsal lateral mesoderm induction from day 1 primitive streak (qPCR on day 2); conditions: day 2 of differentiation, 24 hours
Experimental: FIG. 1: Efficient generation of human primitive streak and dorsal lateral mesoderm from hPSCs. A) Chronology of artery and vein development in vivo within mouse embryos (top) and in vitro from human pluripotent stem cells (hPSCs; bottom). B) Efficient generation of MIXL1^+ mid primitive streak within 24 hours of hPSC differentiation, as assayed by flow cytometry of a MIXL1-GFP reporter hESC line C) In vivo identification of candidate dorsal lateral mesoderm: from a scRNAseq profile of the E7.0 mouse embryo, Hand1^+ Elf5^− lateral mesoderm was computationally identified and then sub-clustered; marker genes shown superimposed on t-SNE (top) and in violin plots (below [CPM: counts per million]). […]
as §2

## CC(C)n1cnc2c(NCCc3ccc(O)cc3)nc(-c3csc4ccccc34)nc21 [SR1]
[1]
  expression of GATA1 and CD45RA: decreased
  formation of hPSC-derived HSC-like cells: enhanced

## LIF: GP130 agonist
[2]
  RUNX1 expression by day 4 upon individual withdrawal of the agent from hemogenic endothelium medium: reduced

## IL1: inflammatory signal IL1β
[1]; inflammatory signal added days 6-9
  blood formation in vitro: modestly promoted

## C/C(=C\c1ccc(C(=O)O)cc1)c1ccc2c(c1)C(C)(C)CCC2(C)C [TTNPB]
[3]
  HOXA1-HOXA5 expression by day 3: enhanced
  formation of CD144+ CD43+ blood progenitors by day 9: promote

## AM580
[3]
  HOXA1-HOXA5 expression by day 3: enhanced
  formation of CD144+ CD43+ blood progenitors by day 9: promote

## Cc1cccc(-c2[nH]c(C(C)(C)C)nc2-c2ccc3c(c2)OCO3)n1 [SB505124, 2-[4-(1,3-Benzodioxol-5-yl)-2-(1,1-dimethylethyl)-1H-imidazol-5-yl]-6-methyl-pyridine]
[2]
  RUNX1 expression by day 4 upon individual withdrawal of the agent from hemogenic endothelium medium: reduced

## VEGF
[4]
  expression of SCL, LMO2 and FLI1 (dorsal lateral mesoderm specification): upregulated

## Cn1nnc(-c2ccc3c(c2)[nH]c2nc(Cc4ccccc4)nc(NC4CCC(N)CC4)c23)n1 (centres unmarked) [UM171]
[1]
  expression of GATA1 and CD45RA: decreased
  formation of hPSC-derived HSC-like cells: enhanced

B1: BMP: BMP agonist; BMP4 used in the experiments (protein, UniProt P12644 293-408, looked up)
Bone morphogenetic protein 4: SPKHHSQRARKKNKNCRRHSLYVDFSDVGWNDWIVAPPGYQAFYCHGDCPFPLADHLNSTNHAIVQTLVNSVNSSIPKACCVPTELSAISMLYLDEYDKVVLKNYQEMVVEGCGCR
[4]
  expression of SCL, LMO2 and FLI1 (dorsal lateral mesoderm specification): upregulated

B2: OSM: GP130 agonist (protein, UniProt P13725 26-221, looked up)
Oncostatin-M: AAIGSCSKEYRVLLGQLQKQTDLMQDTSRLLDPYIRIQGLDVPKLREHCRERPGAFPSEETLRGLGRRGFLQTLNATLGCVLHRLADLEQRLPKAQDLERSGLNIEDLEKLQMARPNILGLRNNIYCMAQLLDNSDTAEPTKAGRGASQPPTPTPASDAFQRKLEGCRFLHGYHRFMHSVGRVFSKWGESPNRSRR
[2]
  RUNX1 expression by day 4 upon individual withdrawal of the agent from hemogenic endothelium medium: reduced
